# Where a name gives a salt, the structure may show the parent alone.
# Columns and labels:
# [1] = Body weights in the CMS study
# Experimental: (§1) On the basis of their sucrose intakes following 2 weeks of initial stress, both stressed and control groups were each divided further into matched subgroups (n=8), and for subsequent five weeks they received daily IP administration of vehicle (0.9% saline, 1 ml/kg), Vortioxetine (10 mg/kg), Nalmefene (1 mg/kg), joint injections of Vortioxetine (10 mg/kg) and Nalmefene (1 mg/kg) or imipramine HCl (10 mg/kg) as the reference treatment. The volume of all injections was 1 ml/kg. The drugs were administered at approx. 10.00 and the weekly sucrose tests were carried out 24 h following the last drug injections. After five weeks all treatments were terminated and one additional sucrose test was carried out following one week of withdrawal. Stress was continued throughout the entire period of treatment and withdrawal.
# Male Wistar rats = test: Sucrose preference test (chronic mild stress model, CMS); assay type: in vivo, rat; conditions: for effect on sucrose intakes in control animals, compared to vehicle: control rats; for effect on sucrose intakes in control animals, compared to vehicle / effect on sucrose consumption in stressed animals, compared to vehicle: daily IP for five weeks, imipramine 10 mg/kg, vortioxetine 10 mg/kg, nalmefene 1 mg/kg, 1% sucrose solution; for effect on sucrose consumption in stressed animals, compared to vehicle: rats exposed to chronic mild stress; for weeks of treatment after which increase in sucrose intakes reached statistical significance versus Week 0 / overall effect in the CMS model (conclusion): stressed animals; for weeks of treatment after which increase in sucrose intakes reached statistical significance versus Week 0: daily IP; for overall effect in the CMS model (conclusion): five weeks of treatment
# Description: Rodents inherently have an interest in sweet foods or liquids. Exposure to stressfull conditions reduces the interest for sweet foods or solutions, indicating a reduced sensitivity to rewards. This can be assessed for example in a sucrose preference test, where the stress-induced reduction of intake of a sucrose solution is used as a measure of anhedonia (reduces sensitivity to rewards). This stress-induced reduction of sucrose intake in the rat is a well-established animal model of anhedonia (Nielsen, Arnt and Sánchez. Intracranial self-stimulation and sucrose intake differ as hedonic measures following chronic mild stress: interstrain and interindividual differences. Behav. Brain. Res. (2000), 107 (1-2): 21-33).
# Male Wistar rats (Charles River, Germany) were brought into the laboratory one month before the start of the experiment. Except as described below, the animals were singly housed with food and water freely available, and were maintained on a 12-h light/dark cycle (lights on at 08.00) and in a constant temperature (22±2° C.) and humidity (50±5%) conditions. All procedures used in this study are conformed to the rules and principles of the 86/609/EEC Directive, and were approved by the Local Bioethical Committee at the Institute of Pharmacology, Polish Academy of Sciences, Krakow, Poland.
# After a period of 3 weeks of adaptation to laboratory and housing conditions, the animals were trained to consume a 1% sucrose solution; training consisted of nine 1 h baseline tests in which sucrose was presented, in the home cage, following 14 h food and water deprivation. The sucrose intake was measured by weighing pre-weighed bottles containing the sucrose solution, at the end of the test. Subsequently, sucrose consumption was monitored, under similar conditions, at weekly intervals throughout the whole experiment.
# On the basis of their sucrose intakes in the final baseline test, the animals were divided into two matched groups. One group of animals was subjected to the chronic mild stress procedure for a period of 8 consecutive weeks. Each week of stress regime consisted of: two periods of food or water deprivation, two periods of 45 degree cage tilt, two periods of intermittent illumination (lights on and off every 2 h), two periods of soiled cage (250 ml water in sawdust bedding), one period of paired housing, two periods of low intensity stroboscopic illumination (150 flashes/min), and three periods of no stress. All stressors were 10-14 h of duration and were applied individually and continuously, day and night. […] They were deprived of food and water for 14 h preceding each sucrose test, but otherwise food and water were freely available in the home cage.
# as §1
# The Fisher's LSD test was used for post-hoc comparisons of means.
# μ-opioid receptors = μ-opioid receptors (Homo sapiens, UniProt P35372); conditions: in vitro studies; cited from earlier work
# Chain of μ-opioid receptors (P35372 whole entry): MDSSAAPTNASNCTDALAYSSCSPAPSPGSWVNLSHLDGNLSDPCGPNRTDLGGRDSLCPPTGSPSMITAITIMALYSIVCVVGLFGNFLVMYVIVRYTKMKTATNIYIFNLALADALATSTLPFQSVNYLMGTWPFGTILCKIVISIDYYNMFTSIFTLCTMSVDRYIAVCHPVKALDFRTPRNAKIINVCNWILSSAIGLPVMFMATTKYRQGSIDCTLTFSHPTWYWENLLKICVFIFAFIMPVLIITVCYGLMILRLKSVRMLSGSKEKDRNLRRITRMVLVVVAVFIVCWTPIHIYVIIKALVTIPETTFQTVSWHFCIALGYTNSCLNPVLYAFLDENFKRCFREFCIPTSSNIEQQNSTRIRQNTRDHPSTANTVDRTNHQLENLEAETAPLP
# δ-opioid receptors = δ-opioid receptors (Homo sapiens, UniProt P41143); conditions: in vitro studies; cited from earlier work
# Chain of δ-opioid receptors (P41143 whole entry): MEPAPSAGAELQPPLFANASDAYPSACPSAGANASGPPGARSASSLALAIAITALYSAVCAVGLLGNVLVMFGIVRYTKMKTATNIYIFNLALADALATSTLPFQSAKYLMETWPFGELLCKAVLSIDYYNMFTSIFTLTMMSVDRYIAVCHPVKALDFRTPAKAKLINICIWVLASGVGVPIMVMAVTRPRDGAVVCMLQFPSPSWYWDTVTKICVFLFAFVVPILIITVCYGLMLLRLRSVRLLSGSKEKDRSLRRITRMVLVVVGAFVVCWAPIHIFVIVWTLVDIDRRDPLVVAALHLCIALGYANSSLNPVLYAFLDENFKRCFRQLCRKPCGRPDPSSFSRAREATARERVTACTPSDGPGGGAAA
# κ-opioid receptors = κ-opioid receptors (Homo sapiens, UniProt P41145); conditions: in vitro studies; cited from earlier work
# Chain of κ-opioid receptors (P41145 whole entry): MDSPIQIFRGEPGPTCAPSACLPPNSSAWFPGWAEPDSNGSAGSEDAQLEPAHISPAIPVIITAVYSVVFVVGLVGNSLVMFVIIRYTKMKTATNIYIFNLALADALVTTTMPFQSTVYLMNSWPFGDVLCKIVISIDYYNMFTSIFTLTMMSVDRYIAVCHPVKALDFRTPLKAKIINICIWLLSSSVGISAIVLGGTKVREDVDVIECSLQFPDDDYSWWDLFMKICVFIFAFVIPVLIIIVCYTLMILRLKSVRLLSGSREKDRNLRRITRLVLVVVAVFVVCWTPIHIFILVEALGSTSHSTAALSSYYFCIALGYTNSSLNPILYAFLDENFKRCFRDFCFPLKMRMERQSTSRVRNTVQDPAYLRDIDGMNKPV
SMILES,"Body weights after five weeks of treatment (means ± SEM), Controls ([1]; control rats, daily IP) [g]","effect on body weight compared to vehicle-treated group ([1]; rat, in vivo)","Body weights after five weeks of treatment (means ± SEM), Stressed ([1]; stressed rats, daily IP) [g]","effect on sucrose intakes in control animals, compared to vehicle (Male Wistar rats)","effect on sucrose consumption in stressed animals, compared to vehicle (Male Wistar rats)",weeks of treatment after which increase in sucrose intakes reached statistical significance versus Week 0 (Male Wistar rats),overall effect in the CMS model (conclusion) (Male Wistar rats),"effect on body weight compared to vehicle-treated group ([1]; control and stressed animals, decreases p<0.05 in controls, NS in stressed)",functional activity at the μ receptor (μ-opioid receptors),functional activity at the δ receptor (δ-opioid receptors),functional activity at the κ receptor (κ-opioid receptors),"Body weights after five weeks of treatment (means ± SEM), Controls ([1]; rat, in vivo, ip) [g]","Body weights after five weeks of treatment (means ± SEM), Stressed ([1]; rat, in vivo, ip) [g]"
"CN(C)CCCN1c2ccccc2CCc2ccccc21 [Imipramine, imipramine HCl]",350 ± 7,decreased,326 ± 7,no significant effect,gradually increased,three,fully reversed,,,,,,
"C=C1CC[C@@]2(O)[C@H]3Cc4ccc(O)c5c4[C@@]2(CCN3CC2CC2)[C@H]1O5 [Nalmefene, 17-(cyclopropylmethyl)-4,5-alpha-epoxy-6-methylenemorphinan-3,14-diol]",371 ± 9,,355 ± 11,no effect,gradually increased,four,effective,did not affect,antagonist activity,antagonist activity,partial agonist activity,,
"Cc1ccc(Sc2ccccc2N2CCNCC2)c(C)c1 [Vortioxetine, 1-[2-(2,4-dimethyl-phenylsulfanyl)-phenyl]-piperazine]",,decreased,,no significant effect,no significant effect,,not effective,,,,,348 ± 9,328 ± 9
